According to PMC6882492, “Synthesis and biological evaluation of novel thienopyrimidine derivatives as diacylglycerol acyltransferase 1 (DGAT-1) inhibitors” (Journal of Enzyme Inhibition and Medicinal Chemistry, 2019):

Experiments:
plasma TAG level = experiment: Oral lipid tolerance test (OLTT), dog; format: in vivo, Beagle dogs; details: dogs, 17a 1 mg/kg po, n = 2
Protocol: Beagle dogs (9 months old, n = 2/group) were obtained from Woojung Bio Inc. (Republic of Korea) were fasted for 16 h and received heavy cream (2.7 mL/kg), glucose (1 g/kg), water (5.3 mL/kg), and acetaminophen (20 mg/kg p.o.) 1 h after compound administration. Blood samples were collected at –0.5, 0, 1, 2, and 4 h.
To determine in vivo efficacy, we evaluated the activity of 17a against serum TAG level induced by the oral administration of corn oil (oral lipid tolerance test, OLTT; Figures 3 and 4), since intestinal targeted DGAT-1 inhibition results in a reduced serum TAG level. 17a was orally administered to ICR mice at 3 mg/kg or to dogs at 1 mg/kg before administration of corn oil.
Figure 4. Effect of 17a in a canine oral lipid tolerance test (n = 2, *p < .05; ***p < .001). The dog was treated with 17a (po. 1 mg/kg) or 2 (po. 1 mg/kg) before oral administration of corn oil. Vehicle for 2: 0.5% methylcellulose/0.5% Tween80 in distilled water, vehicle for 17a: 0.5% Tween80 in distilled water.

CYP1A2 = target: T1, CYP1A2 (Homo sapiens, UniProt P05177); experiment: CYP inhibition assay CYP1A2; format: in vitro ADME; details: fluorescence detection method; read-out: CYPs enzyme inhibition, IC50, CYP1A2
T1 sequence (P05177 1-516): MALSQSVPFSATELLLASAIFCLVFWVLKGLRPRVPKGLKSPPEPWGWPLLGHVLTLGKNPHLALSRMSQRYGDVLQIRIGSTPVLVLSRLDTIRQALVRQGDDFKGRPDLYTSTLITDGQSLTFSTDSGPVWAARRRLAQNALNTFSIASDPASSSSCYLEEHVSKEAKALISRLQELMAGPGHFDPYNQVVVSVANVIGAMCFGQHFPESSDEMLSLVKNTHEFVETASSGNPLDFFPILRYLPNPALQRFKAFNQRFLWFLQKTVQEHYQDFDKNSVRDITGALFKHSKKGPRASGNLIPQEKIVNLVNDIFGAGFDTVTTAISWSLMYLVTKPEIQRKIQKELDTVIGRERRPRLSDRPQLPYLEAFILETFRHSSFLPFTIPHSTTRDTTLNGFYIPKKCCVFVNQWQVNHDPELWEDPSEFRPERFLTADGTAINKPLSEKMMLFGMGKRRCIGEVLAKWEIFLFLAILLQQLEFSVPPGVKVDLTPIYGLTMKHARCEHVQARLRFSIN

hACAT1 = target: T2, hACAT1 (Homo sapiens, UniProt P35610); experiment: Enzymatic assay hACAT1; format: biochemical
T2 sequence (P35610 1-550): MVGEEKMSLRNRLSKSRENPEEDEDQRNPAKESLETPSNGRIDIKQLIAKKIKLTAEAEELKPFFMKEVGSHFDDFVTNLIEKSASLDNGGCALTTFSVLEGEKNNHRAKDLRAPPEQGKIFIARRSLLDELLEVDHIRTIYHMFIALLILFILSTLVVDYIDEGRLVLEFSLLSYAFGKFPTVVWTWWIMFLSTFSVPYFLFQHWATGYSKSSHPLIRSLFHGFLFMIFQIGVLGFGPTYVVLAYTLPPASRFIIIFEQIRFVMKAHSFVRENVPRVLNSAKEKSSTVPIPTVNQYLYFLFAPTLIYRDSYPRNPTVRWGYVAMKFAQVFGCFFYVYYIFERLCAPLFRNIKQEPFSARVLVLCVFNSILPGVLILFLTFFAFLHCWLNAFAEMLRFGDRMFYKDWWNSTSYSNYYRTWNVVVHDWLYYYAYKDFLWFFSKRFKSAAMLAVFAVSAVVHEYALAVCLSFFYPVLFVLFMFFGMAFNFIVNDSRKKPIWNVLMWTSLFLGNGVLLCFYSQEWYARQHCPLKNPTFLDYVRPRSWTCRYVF
From the text: ACATs have sequence homology to DGAT-1 and play essential roles in cholesterol homeostasis. 17b was not explored in the enzymatic assays due to its poor pharmacokinetic profile.

[1] = Pharmacokinetic profile in rat; format: in vivo
CYP2D6 = CYP2D6 (Homo sapiens, UniProt P10635); experiment: CYP inhibition assay CYP2D6; format: in vitro ADME; details: fluorescence detection method; read-out: CYPs enzyme inhibition, IC50, CYP2D6
CYP2D6, sequence (P10635 whole entry): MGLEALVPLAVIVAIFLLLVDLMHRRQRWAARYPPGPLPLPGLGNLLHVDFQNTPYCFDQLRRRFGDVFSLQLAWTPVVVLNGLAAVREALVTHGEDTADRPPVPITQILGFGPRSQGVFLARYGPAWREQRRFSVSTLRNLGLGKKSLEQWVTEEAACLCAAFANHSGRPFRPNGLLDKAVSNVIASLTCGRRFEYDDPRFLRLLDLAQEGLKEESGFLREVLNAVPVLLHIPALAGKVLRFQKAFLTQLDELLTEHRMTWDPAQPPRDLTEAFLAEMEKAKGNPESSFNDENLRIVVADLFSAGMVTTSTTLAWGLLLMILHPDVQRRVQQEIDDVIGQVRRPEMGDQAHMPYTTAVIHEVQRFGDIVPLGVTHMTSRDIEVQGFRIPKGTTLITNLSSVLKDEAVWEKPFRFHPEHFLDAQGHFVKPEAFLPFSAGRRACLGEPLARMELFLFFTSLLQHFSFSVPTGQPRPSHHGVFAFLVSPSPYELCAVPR

O=C([O-])C[C@H]1CC[C@@H](c2csc3c(-c4ccc(NC(=O)Nc5cccc(Cl)c5)cc4)ncnc32)CC1.[Na+] [Compound 17a, Sodium cis-2–(4–(4-(4-(3–(3-chlorophenyl)ureido)phenyl)thieno[3,2-d]pyrimidin-7-yl)cyclohexyl)acetate]
Reduction of TAG in OLTT (plasma TAG level): significant reduction of TAG | IC50 (CYP1A2): 10.6 µM | IC50 (hACAT1): > 10 µM | Cl ([1]; 3 mg/kg iv, 10 mg/kg po): 8.3 ± 3.3 mL/min/kg | half-life ([1]; in vivo, 10 mg/kg po): 3 ± 0.4 h | bioavailability ([1]; in vivo, 10 mg/kg po vs 3 mg/kg iv): 30% | AUC ([1]; in vivo, 10 mg/kg po, read-out: AUC 0 ∼ 24): 18600 ng·h/mL | IC50 (CYP2D6): 8.7 µM
